One assay has as its system Plasmodium falciparum. Put plainly: Antimalarial activity against Plasmodium falciparum infected human RBC. The assay is classed as functional, organism-based.
A further assay has as its target Plasmepsin II (Plasmodium falciparum, UniProt P46925). Put plainly: Inhibition of PM2 by FRET assay.

Data on 55 compounds can be found in ChEMBL document CHEMBL1146154, “Inhibitors of Plasmepsin II-potential antimalarial agents” (Bioorg Med Chem Lett, 2006).

The structures appear in SMILES notation.

Sequence of Plasmepsin II (P46925 whole entry): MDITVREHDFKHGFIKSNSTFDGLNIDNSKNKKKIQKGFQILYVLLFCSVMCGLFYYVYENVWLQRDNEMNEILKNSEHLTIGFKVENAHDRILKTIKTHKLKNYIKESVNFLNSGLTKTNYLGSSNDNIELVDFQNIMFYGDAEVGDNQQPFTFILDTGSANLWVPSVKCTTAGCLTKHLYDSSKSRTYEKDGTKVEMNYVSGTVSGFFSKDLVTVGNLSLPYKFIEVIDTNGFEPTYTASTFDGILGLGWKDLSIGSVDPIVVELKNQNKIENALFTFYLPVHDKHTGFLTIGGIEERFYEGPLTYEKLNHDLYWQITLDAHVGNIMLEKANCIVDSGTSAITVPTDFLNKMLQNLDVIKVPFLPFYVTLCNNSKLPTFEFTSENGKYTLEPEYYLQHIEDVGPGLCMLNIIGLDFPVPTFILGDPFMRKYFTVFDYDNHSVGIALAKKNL

Regarding `CCCCCc1ccc(C(=O)N(CCN(CCCC)CCCC)Cc2ccc(-c3ccc(CC(=O)NCc4ccccc4)cc3)cc2)cc1`, the results for the IC50 in the assay with Plasmodium falciparum and against Plasmepsin II were 340 nM and 46 nM, respectively. The corresponding values for `CCCCCc1ccc(C(=O)N(CCN(CCCC)CCCC)Cc2ccc(-c3cncnc3)cc2)cc1` are 2230 nM and 531 nM. As for `CCCCCc1ccc(C(=O)N(CCN(CCCC)CCCC)Cc2ccc(-c3cccnc3)cn2)cc1`, the results for the IC50 in the assay on Plasmodium falciparum and on Plasmepsin II were 465 nM and 5270 nM, respectively. Consider `CCCCCc1ccc(C(=O)N(CCN(CCCC)CCCC)Cc2ccc(-c3ccncc3)nc2)cc1`, for which the figures for the concentration for half-maximal inhibition (IC50) in the assay with Plasmodium falciparum and on Plasmepsin II were 457 nM and 642 nM, respectively. `CCCCCc1ccc(C(=O)N(CCN(CCCC)CCCC)Cc2ccc(N3CCCCC3)cc2)cc1`: the concentration for half-maximal inhibition (IC50) – broadly, the midpoint of a concentration-inhibition curve – in the assay with Plasmodium falciparum is 628 nM; on Plasmepsin II, 369 nM.

`CCCCCc1ccc(C(=O)N(CCN(CCCC)CCCC)Cc2ccc(N(CC)CC)cc2)cc1`: the figures for the IC50 in the assay with Plasmodium falciparum and on Plasmepsin II were 550 nM and 1490 nM, respectively.

On to `CCCCCc1ccc(C(=O)N(CCN2CCC(Cc3ccccc3)CC2)Cc2ccc(-c3ccc4c(c3)OCO4)cc2)cc1`, for which, on Plasmepsin II, the 50% inhibitory concentration (IC50) worked out at 190 nM. Turning to `CCCCCc1ccc(C(=O)N(CCN(CCCC)CCCC)Cc2ccc(N3CCN(c4ccccc4)CC3)cc2)cc1`, the IC50 with Plasmodium falciparum came to 1280 nM; against Plasmepsin II, 200 nM. Regarding `CCCCCc1ccc(C(=O)N(CCN(CCCC)CCCC)Cc2ccc(NC(=O)c3cnccn3)cc2)cc1`, the IC50 came out at 605 nM with Plasmodium falciparum and 243 nM on Plasmepsin II.

In the case of `CCCCCc1ccc(C(=O)N(Cc2ccc(-c3ccc(CC(=O)OC)cc3)cc2)C2CCN(CCC(C)C)CC2)cc1`, the IC50 in the assay with Plasmodium falciparum came out at 1.8 nM; on Plasmepsin II, 6 nM. Take `CCCCCc1ccc(C(=O)N(CCN2CCOCC2)Cc2ccc(-c3ccc4c(c3)OCO4)cc2)cc1`: inhibition at Plasmepsin II was half-maximal at 2900 nM (IC50). `CCCCCc1ccc(C(=O)N(CCN(CCCC)CCCC)Cc2ccc(-c3cccnc3)cc2)cc1`: the IC50 is 273 nM in the assay with Plasmodium falciparum and 374 nM against Plasmepsin II. `CCCCCc1ccc(C(=O)N(CCN(CCCC)CCCC)Cc2ccc(-c3ccc(CC(=O)OC)cc3)cc2)cc1`: the results for the IC50 in the assay with Plasmodium falciparum and on Plasmepsin II were 2470 nM and 183 nM, respectively. In the case of `CCCCCc1ccc(C(=O)N(CCN(CCCC)CCCC)Cc2ccc(-c3cccnc3)nc2)cc1`, the figures for the IC50 in the assay with Plasmodium falciparum and on Plasmepsin II were 458 nM and 587 nM, respectively. For `CCCCCc1ccc(C(=O)N(CCN(CCCC)CCCC)Cc2ccc(Nc3ccccc3)cc2)cc1`, the IC50 was found to be 539 nM with Plasmodium falciparum and 224 nM against Plasmepsin II. With `CCCCCc1ccc(C(=O)N(CCN(CCCC)CCCC)Cc2ccc(N(C)c3ccccc3)cc2)cc1`, the half-maximal inhibitory concentration (IC50) was 617 nM with Plasmodium falciparum and 574 nM on Plasmepsin II. In the case of `CCCCCc1ccc(C(=O)N(CCN(CCCC)CCCC)Cc2ccc(-c3ccccc3)cn2)cc1`, the values for the IC50 in the assay with Plasmodium falciparum and against Plasmepsin II were 693 nM and 2350 nM, respectively.

Turning to `CCCCCc1ccc(C(=O)N(CCN(CCCC)CCCC)Cc2ccc(N3CCN(C)CC3)cc2)cc1`, the IC50 was found to be 431 nM in the assay on Plasmodium falciparum and 2550 nM at Plasmepsin II. In the case of `CCCCCc1ccc(C(=O)N(CCN(CCC)CCC)Cc2ccc(-c3ccc4c(c3)OCO4)cc2)cc1`, the 50% inhibitory concentration (IC50) against Plasmepsin II stood at 531 nM. In turn, `CCCCCc1ccc(C(=O)N(CCN(CC)CCN(CC)CC)Cc2ccc(-c3ccc4c(c3)OCO4)cc2)cc1` yielded an IC50 on Plasmepsin II of 439 nM.

On to `CCCCCc1ccc(C(=O)N(CCN(CCCC)CCCC)Cc2ccc(-c3ccc4c(c3)OCO4)cn2)cc1`, for which the results for the IC50 with Plasmodium falciparum and against Plasmepsin II were 698 nM and 1910 nM, respectively. As for `CCCCCc1ccc(C(=O)N(CCN(CCCC)CCCC)Cc2ccc(NCc3ccccc3)cc2)cc1`, the IC50 worked out at 686 nM in the assay on Plasmodium falciparum and 429 nM against Plasmepsin II. Take `CCCCCc1ccc(C(=O)N(CCN(CCCC)CCCC)Cc2ccc(-c3ccccn3)nc2)cc1`: the IC50 in the assay on Plasmodium falciparum amounted to 411 nM; against Plasmepsin II, 736 nM.

Take `CCCCCc1ccc(C(=O)N(CCN(CCCC)CCCC)Cc2ccc(-c3cncnc3)cn2)cc1`: the figures for the IC50 in the assay on Plasmodium falciparum and at Plasmepsin II were 639 nM and 8530 nM, respectively. The corresponding values for `CCCCCc1ccc(C(=O)N(CCN(CCCC)CCCC)Cc2ccc(-c3ccncc3)cc2)cc1` are 583 nM and 212 nM.

In turn, `CCCCCc1ccc(C(=O)N(CCN(CCCC)CCCC)Cc2ccc(-c3ccccn3)cc2)cc1` yielded an IC50 with Plasmodium falciparum of 1730 nM.

For `CCCCCc1ccc(C(=O)N(CCN(CCCC)CCCC)Cc2ccc(-c3ccc(OCCO)cc3)cc2)cc1`, the results for the IC50 in the assay on Plasmodium falciparum and on Plasmepsin II were 3660 nM and 511 nM, respectively. In turn, `CCCCCc1ccc(C(=O)N(CCN(CCO)Cc2ccccc2)Cc2ccc(-c3ccc4c(c3)OCO4)cc2)cc1` gave an IC50 on Plasmepsin II of 334 nM. With `CCCCCc1ccc(C(=O)N(CCN(CCCC)CCCC)Cc2ccc(-c3ccccc3)cc2)cc1`, the values for the IC50 in the assay with Plasmodium falciparum and at Plasmepsin II were 2440 nM and 143 nM, respectively. Regarding `CCCCCc1ccc(C(=O)N(CCN(CCCC)CCCC)Cc2ccc(-c3cncnc3)nc2)cc1`, the IC50 in the assay with Plasmodium falciparum worked out at 560 nM; against Plasmepsin II it was 2230 nM.

`CCCCCc1ccc(C(=O)N(CCCc2ccccc2)C2CCN(Cc3ccccc3)CC2)cc1` registered an IC50 against Plasmepsin II of 1700 nM. Regarding `CCCCCc1ccc(C(=O)N(CCN(CCCC)CCCC)Cc2ccc(Nc3ccncc3)cc2)cc1`, the IC50 was determined as 207 nM in the assay with Plasmodium falciparum and 1820 nM against Plasmepsin II. The matching figures for `CCCCCc1ccc(C(=O)N(CCN(CCCC)CCCC)Cc2ccc(-c3ccc(CC(=O)N4CCOCC4)cc3)cc2)cc1`: 885 nM and 74 nM.

Turning to `CCCCCc1ccc(C(=O)N(CCN(C(C)C)C(C)C)Cc2ccc(-c3ccc4c(c3)OCO4)cc2)cc1`, on Plasmepsin II, the concentration for half-maximal inhibition (IC50) is 1500 nM.

Consider `CCCCCc1ccc(C(=O)N(CCN(CCCC)CCCC)Cc2ccc(-c3ccc4c(c3)OCO4)nc2)cc1`, for which the IC50 with Plasmodium falciparum amounted to 677 nM; against Plasmepsin II it was 437 nM. As for `CCCCCc1ccc(C(=O)N(CCN(CCCC)CCCC)Cc2ccc(-c3ccc4c(c3)OCO4)cc2)cc1`, the results for the IC50 in the assay on Plasmodium falciparum and against Plasmepsin II were 1200 nM and 101 nM, respectively. Turning to `CCCCCc1ccc(C(=O)N(CCN(CCCC)CCCC)Cc2ccc(N3CCN(Cc4ccccc4)CC3)cc2)cc1`, the IC50 in the assay with Plasmodium falciparum worked out at 790 nM; against Plasmepsin II, 646 nM. Turning to `CCCCCc1ccc(C(=O)N(CCN(CCCC)CCCC)Cc2ccc(-c3ccncc3)cn2)cc1`, the values for the IC50 in the assay on Plasmodium falciparum and at Plasmepsin II were 630 nM and 4550 nM, respectively. As for `CCCCCc1ccc(C(=O)N(CCN(CCCC)CCCC)Cc2ccc(-n3ccc4ccccc43)cc2)cc1`, the IC50 with Plasmodium falciparum was 739 nM; on Plasmepsin II, 670 nM.

At Plasmepsin II, `CCCCCc1ccc(C(=O)N(CCN2CCCCC2)Cc2ccc(-c3ccc4c(c3)OCO4)cc2)cc1` showed a half-maximal inhibitory concentration (IC50) of 334 nM. `CCCCCc1ccc(C(=O)N(CCN(CCCC)CCCC)Cc2ccc(-c3ccc(C(=O)N4CCSCC4)cc3)cc2)cc1`: the IC50 was found to be 751 nM in the assay on Plasmodium falciparum and 56 nM against Plasmepsin II. Consider `CCCCCc1ccc(C(=O)N(CCN(CCCC)CCCC)Cc2ccc(NC(=O)C3CCNCC3)cc2)cc1`, for which the figures for the IC50 in the assay with Plasmodium falciparum and on Plasmepsin II were 550 nM and 464 nM, respectively. `CCCCCc1ccc(C(=O)N(CCN(CCCC)CCCC)Cc2ccc(-c3ccccc3)nc2)cc1`: the IC50 is 609 nM in the assay on Plasmodium falciparum and 589 nM on Plasmepsin II. For the compound `CCCCCc1ccc(C(=O)N(CCN(CCCC)CCCC)Cc2ccc(N(C)c3ccncc3)cc2)cc1`, the concentration for half-maximal inhibition (IC50) was 453 nM with Plasmodium falciparum and 3010 nM at Plasmepsin II. With `CCCCCc1ccc(C(=O)N(CCN(CCCC)CCCC)Cc2ccc(-c3ccc(C(=O)NCc4ccccc4)cc3)cc2)cc1`, the figures for the concentration for half-maximal inhibition (IC50) in the assay on Plasmodium falciparum and on Plasmepsin II were 566 nM and 72 nM, respectively. Regarding `CCCCCc1ccc(C(=O)N(CCN(CCCC)CCCC)Cc2ccc(N(C)Cc3ccccc3)cc2)cc1`, the IC50 came to 609 nM in the assay on Plasmodium falciparum and 289 nM against Plasmepsin II.

`CCCCCc1ccc(C(=O)N(CCN2CCC(CCCc3ccccc3)CC2)Cc2ccc(-c3ccc4c(c3)OCO4)cc2)cc1` had an IC50 against Plasmepsin II of 165 nM. On to `CCCCCc1ccc(C(=O)N(CCN(CCCC)CCCC)Cc2ccc(-n3cccc3)cc2)cc1`, for which the IC50 turned out to be 825 nM with Plasmodium falciparum and 240 nM at Plasmepsin II.

As for `CCCCCc1ccc(C(=O)N(CCN(CCCC)CCCC)Cc2ccc(NC(=O)c3ccnc(OC)c3)cc2)cc1`, the half-maximal inhibitory concentration (IC50) with Plasmodium falciparum is 623 nM; at Plasmepsin II, 154 nM.

For `CCCCCc1ccc(C(=O)N(CCN(CCCC)CCCC)Cc2ccc(NC(=O)C3CCCNC3)cc2)cc1` (centres undefined), the figures for the IC50 in the assay with Plasmodium falciparum and against Plasmepsin II were 376 nM and 202 nM, respectively.

Turning to `CCCCCc1ccc(C(=O)N(CCN(CCCC)CCCC)Cc2ccc(-c3ccc(C(=O)N(C)C)cc3)cc2)cc1`, the IC50 is 859 nM in the assay with Plasmodium falciparum and 77 nM on Plasmepsin II. For the compound `CCCCCc1ccc(C(=O)N(CCN(CCCC)CCCC)Cc2ccc(N3CCSCC3)cc2)cc1`, the IC50 with Plasmodium falciparum amounted to 1760 nM; at Plasmepsin II, 188 nM. Consider `CCCCCc1ccc(C(=O)N(CCN(CCCC)CCCC)Cc2ccc(-c3ccc(CC(=O)N(C)Cc4ccccc4)cc3)cc2)cc1`, for which the results for the IC50 with Plasmodium falciparum and against Plasmepsin II were 725 nM and 91 nM, respectively. `CCCCCc1ccc(C(=O)N(CCN(CC)CC)Cc2ccc(-c3ccc4c(c3)OCO4)cc2)cc1`: at Plasmepsin II, inhibition was half-maximal at 1520 nM (IC50). Regarding `CCCCCc1ccc(C(=O)N(CCN(CCCC)CCCC)Cc2ccc(-c3ccc(CC(=O)O)cc3)cc2)cc1`, the results for the half-maximal inhibitory concentration (IC50) in the assay on Plasmodium falciparum and against Plasmepsin II were 7150 nM and 463 nM, respectively.
